System: MDA production (lipid peroxidation) in brain tissue
Assay: Malonaldehyde (MDA) production in mouse brain after oral administration and sleep fragmentation
Format: in vivo, mice
Settings: gavage once a day for 120 days, then 15 days sleep fragmentation, brain cortex, MDA expressed as fold increase
From the text: Male adult mice were obtained having either the human APOE ε4 allele (targeted replacement, n=42) or wild type allele (n=42). […] Administration was by gavage once a day for 120 days. After this period, the subject mice underwent sleep fragmentation (SF) for 15 days. The SF device exposes freely behaving mice in a standard laboratory cage to intermittent tactile stimulation utilizing a motorized mechanical device. Tactile stimulation is produced by a horizontal bar powered by an electrical motor system, which sweeps just above the cage floor from side to side at intermittent functioning mode (2 min). During the […] motion, mice may need to step over the […] passes. Chronic SF may induce inflammatory responses and oxidative stress. After 15 days of SF, the mice were sacrificed and the brain dissected out for MDA and 8-OHdG assays, which are produced by the brain in response to oxidative stress and inflammatory events. MDA production is an indicator of lipid peroxidation. After the mice were sacrificed, an LPO-586 kit (OxisResearch, Portland Oreg.) was used according to the manufacturer's instructions to measure MDA levels in the brain tissue. The animals were anesthetized with CO2 inhalation then decapitated, and the cortex were dissected, snap frozen in liquid nitrogen, and stored at -80° C. until assay the following day. Neuronal tissues were homogenized in 20 mM phosphate buffer (pH 7.4) containing 0.5 mM butylated hydroxytoluene to prevent sample oxidation. […] The samples were then centrifuged and clear supernatants measured at 586 nm. MDA production was then calculated per the standard curve according to the manufacturer's instructions. The relative levels of lipid peroxidation were expressed in fold increase in MDA production.

SMILES	MDA production, Diff of Means (MDA-Wild Type mice)	MDA production, Diff of Means (MDA-APOE ε4 allele mice (human APOE ε4 targeted replacement))
Cc1c(C)c2c(c(C)c1O)CC[C@@](C)(CCC[C@H](C)CCC[C@H](C)CCCC(C)C)O2 [vitamin E (SW), vitamin E]	0.489	–
O=C(O)CCCCC1CCSS1 (stereo not drawn) [lipoic acid (SW), lipoic acid]	0.46	0.663
